What was measured:
[1] = test system: animal model of DSS-induced inflammatory bowel disease; experiment: Therapeutic effect in mouse model of DSS-induced inflammatory bowel disease (body weight, DAI, colon length); type: in vivo, mouse (C57BL/6); conditions: 5-ASA 100 mg/kg oral; for DAI / Colon length: Day 8, mouse, 2.5% DSS, Compound 1 2 mg/kg intraperitoneal; for DAI: 7 days, DSS group 11.75 ± 0.15; for Colon length: DSS group 4.9, normal control 8.4; for rate of body weight loss compared to group administered with DSS: mouse, 2.5% DSS 7 days, Chemical formula 1 2 mg/kg intraperitoneal, once a day for 7 days, FIG. 6
From the text: As a mouse with induced inflammatory bowel disease, 6 week-old C57BL/6 was used, and the animal was induced to have the disease by administration of DSS (dextran sulfate sodium, MW 36000 to 50000, MP Biomedicals), Test groups were divided into the followings; normal control which has not been treated with any chemical (3 animals); group administered with DSS (6 animals); group administered with DSS+5-ASA (5-aminosalicylic acid, Sigma) (6 animals); and group administered with DSS+compound represented by Chemical formula 1 of the present invention (6 animals).
Inflammatory bowel disease is generally evaluated in terms of the disease activity index (DAI) based on clinical signs like body weight loss, diarrhea, and bloody feces. DAI is measured by giving a score to each of body weight loss rate, state of feces, and state of bloody feces (Table 1).
In this example, evaluation was made for 7 days for each test group. For all test groups except normal control, 100 ml of drinking water with 2.5% DSS were supplied for 7 days, while the water exchange was made every 2 days, to induce inflammatory bowel disease. The group administered with 5-ASA was orally administered, once a day for 7 days, with 100 mg/kg 5-ASA dispersed in 2.5% CMC (carboxymethylcellulose sodium, Sigma). The compound represented by Chemical formula 1 of the present invention (2 mg/kg) was administered via intraperitoneal injection, once a day for 7 days. From the first day of test, mouse of each test group was weighed to measure the rate of body weight loss. […] However, the weight loss was observed from Day 5 and thereafter in every test group induced to have inflammatory bowel disease by a treatment with DSS.
Evaluation of disease activity index (DAI) was also carried out, once a day from the first day of the test. From all test groups having inflammatory bowel disease induced by DSS treatment except normal control which has not been treated with any chemical, higher DAI was shown from Day 5 and thereafter.
Sum of each item analyzed on Day 8 based on the evaluation index of Table 1 was described as disease activation index (DAI) in Table 2.
With regard to the inflammatory response to inflammatory bowel disease, level of the response can be evaluated in terms of the decrease in colon length. Mouse in each test group was sacrificed on Day 8 and the colon was removed from the animal. Colon length was measured from the removed colon.

IL-1β = IL-1β mRNA expression (qPCR) in zebra fish animal model of DSS-induced inflammatory bowel disease; type: in vivo, zebra fish (Danio rerio: AB); conditions: zebra fish larvae, 0.5% DSS, 5 hours treatment; Chemical formula 1 0.3 μM and 1 μM; FIG. 5
Experimental: As a zebra fish animal model of inflammatory bowel disease, wild-type zebra fish (Danio rerio: AB) was used, which was kept in an exclusive breeding facility at conditions including light/dark cycle of 14 hours/10 hours and temperature of 28° C. All the animal experiments were carried out according to the protocol of Ethics Committee for Animal Expectation, Healinno-LS (Registration No.: AEC-20210720-0001), and all the materials were sterilized first before they are used for experiment.
According to a treatment with 0.5% DSS (dextran sulfate sodium, M.W. 36,000-50,000, #160110, MP), which induces “ulcerative colitis” as inflammatory bowel disease by creating a damage in colonic epithelial cells, a zebra fish was induced to have inflammatory bowel disease. Then, by threating the zebra fish with the compound represented by Chemical formula 1 of the present invention at different concentrations (0.3 μM and 1 μM), inhibitory activity on inflammatory bowel disease was examined. […]
The zebra fish larvae which have been treated with the compound represented by Chemical formula 1 of the present invention were then added with TRIzol reagent (300 μl), and then homogenized by using a tissue homogenizer (G20, GINKO). […] Purity and concentration were measured by using a microplate reader (FLUOstar omega, BMG Labtech), and the extracted total RNA was kept at −80° C. […]

| Structure (SMILES) | DAI [1] | Colon length [1] | rate of body weight loss compared to group administered with DSS [1] | expression amount of IL-1β compared to DSS model group (IL-1β) |
| --- | --- | --- | --- | --- |
| COC(=O)C[C@H](OC(=O)/C=C/c1ccc(O)c(O)c1)c1ccc(O)c(O)c1 [Compound 1, 3-[3,4-dihydroxyphenyl]acrylic acid 1-[3,4-dihydroxyphenyl]-2-methoxycarbonylethyl ester] | 8.75 ± 0.21 | 7.4 cm | lower rate of body weight loss | statistically significantly lower |
| Nc1ccc(O)c(C(=O)O)c1 [Compound 5-ASA, 5-aminosalicylic acid, reference compound] | 10.67 ± 0.19 | 5.7 cm | lower rate of body weight loss | statistically significantly lower |
